Data as given in patent US9988400B2 (Genentech, Inc., priority 2013, dated 2018).

Biological target: T1, HEK cells stably transfected with tetracycline inducible hNR1 and hNR2A (Homo sapiens, UniProt Q05586+Q12879)
T1 construct: expressed in transfected cells; host or cells: HEK cells, stably transfected, tetracycline/doxycycline inducible
Assay: Assay 1: Cell-Based Assay, cytosolic calcium response to positive allosteric modulators (with 30 μM glycine and 300 nM L-glutamate, EC30)
Settings: for EC50: cytosolic calcium response, with 30 μM glycine and 300 nM L-glutamate (EC30), — = no plateau was reached; for Max %: responses scaled relative to 100 μM L-glutamate maximal response (100%) and 0 μM L-glutamate (0%)
Outline: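 Cells induced 24 h with 7.5 μg mL^−1 doxycycline plus 500 μM (+)-ketamine, loaded 60 min at 37 °C with calcium dye in Mg-free HBSS (1.8 mM Ca, probenecid, 10 μM (+)-ketamine, pH 7.15). Peak RFU over 5 min after compound addition, scaled to 100 μM L-glutamate (100%) and 0 μM (0%); four-parameter Hill fit for EC50, max % if no plateau.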

T1 sequence (Q12879 23-1464, other chains not shown): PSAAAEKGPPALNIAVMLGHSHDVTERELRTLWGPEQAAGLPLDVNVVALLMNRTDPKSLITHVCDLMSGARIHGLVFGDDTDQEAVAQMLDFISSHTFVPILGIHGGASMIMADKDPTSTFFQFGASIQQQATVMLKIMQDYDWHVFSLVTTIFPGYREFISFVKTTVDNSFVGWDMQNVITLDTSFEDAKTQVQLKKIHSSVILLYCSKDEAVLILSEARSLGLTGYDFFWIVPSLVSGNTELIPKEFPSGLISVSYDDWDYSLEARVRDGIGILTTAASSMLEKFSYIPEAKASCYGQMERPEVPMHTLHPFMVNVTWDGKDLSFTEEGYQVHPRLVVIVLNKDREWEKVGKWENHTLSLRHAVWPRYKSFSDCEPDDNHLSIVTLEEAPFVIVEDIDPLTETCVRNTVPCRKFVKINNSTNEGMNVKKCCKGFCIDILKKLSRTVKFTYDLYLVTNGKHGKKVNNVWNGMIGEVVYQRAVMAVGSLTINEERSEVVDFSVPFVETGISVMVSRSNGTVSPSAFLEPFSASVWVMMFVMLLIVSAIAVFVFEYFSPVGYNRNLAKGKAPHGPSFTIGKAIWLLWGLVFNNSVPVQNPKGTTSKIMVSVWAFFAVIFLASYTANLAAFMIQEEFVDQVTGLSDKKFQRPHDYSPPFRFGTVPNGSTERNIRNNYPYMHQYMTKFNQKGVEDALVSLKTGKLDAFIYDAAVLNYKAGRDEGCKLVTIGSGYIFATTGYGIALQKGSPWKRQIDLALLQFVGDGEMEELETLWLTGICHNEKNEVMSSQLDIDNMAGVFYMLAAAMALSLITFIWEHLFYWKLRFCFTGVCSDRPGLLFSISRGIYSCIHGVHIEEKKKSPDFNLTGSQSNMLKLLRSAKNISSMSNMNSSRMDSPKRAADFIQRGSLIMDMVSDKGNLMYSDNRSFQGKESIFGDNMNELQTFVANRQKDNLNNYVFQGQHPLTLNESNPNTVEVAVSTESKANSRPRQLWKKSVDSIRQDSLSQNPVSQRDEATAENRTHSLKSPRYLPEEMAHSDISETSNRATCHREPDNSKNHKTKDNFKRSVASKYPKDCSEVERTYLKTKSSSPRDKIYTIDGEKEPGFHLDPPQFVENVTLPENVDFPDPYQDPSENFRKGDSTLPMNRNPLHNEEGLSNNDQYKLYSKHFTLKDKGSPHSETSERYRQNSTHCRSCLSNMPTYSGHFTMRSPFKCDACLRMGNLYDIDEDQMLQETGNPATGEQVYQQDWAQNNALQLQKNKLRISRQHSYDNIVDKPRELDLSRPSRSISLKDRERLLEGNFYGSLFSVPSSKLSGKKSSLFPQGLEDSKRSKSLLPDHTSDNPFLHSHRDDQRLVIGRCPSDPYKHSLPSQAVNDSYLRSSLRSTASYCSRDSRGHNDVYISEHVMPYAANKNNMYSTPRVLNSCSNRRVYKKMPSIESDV

EC50 (Table 2) | Max % (Table 2) | EC50 (Table 3) | Structure (SMILES)
2.6 µM | 163% | – | CCN(Cc1cc(=O)n2c(C3CC3C(N)=O)c(C)sc2n1)c1ccc(F)cc1 (centres unmarked) [Example 14.1, 2-[7-[(N-ethyl-4-fluoro-anilino)methyl]-2-methyl-5-oxo-thiazolo[3,2-a]pyrimidin-3-yl]cyclopropanecarboxamide]
– | 43.3% | – | COCc1c(C)sc2nc(COc3ccc(F)cc3)cc(=O)n12 [Example 4.31, 7-(4-Fluorophenoxymethyl)-3-(methoxymethyl)-2-methyl-5H-[1,3]thiazolo[3,2-a]pyrimidin-5-one]
– | – | 24.5 µM | Cc1sc2nc(Oc3cccc(C(F)(F)F)c3)c(F)c(=O)n2c1C1CC1CO (centres unmarked) [compound 34, 6-fluoro-3-[2-(hydroxymethyl)cyclopropyl]-2-methyl-7-[3-(trifluoromethyl)phenoxy]thiazolo[3,2-a]pyrimidin-5-one]
7.7 µM | 128% | – | Cc1sc2nc(COc3ccc(F)cc3F)cc(=O)n2c1[C@@H]1C[C@H]1CO (relative stereo) [Example 4.6, 7-(2,4-Difluorophenoxymethyl)-3-[trans-2-(hydroxymethyl)cyclopropyl]-2-methyl-5H-[1,3]thiazolo[3,2-a]pyrimidin-5-one]
– | 80.8% | – | Cc1sc2nc(Cn3nc(C4CC4)cc3C(F)(F)F)cc(=O)n2c1-c1cncnc1 [Example 15.28, 7-((3-cyclopropyl-5-(trifluoromethyl)-1H-pyrazol-1-yl)methyl)-2-methyl-3-(pyrimidin-5-yl)-5H-thiazolo[3,2-a]pyrimidin-5-one]
– | – | 6.36 µM | Cc1sc2nc(Cn3nc(Cl)cc3C(F)(F)F)cc(=O)n2c1-c1cncc(F)c1 [compound 139, 7-[[3-chloro-5-(trifluoromethyl)pyrazol-1-yl]methyl]-3-(5-fluoro-3-pyridyl)-2-methyl-thiazolo[3,2-a]pyrimidin-5-one]
– | – | 23.9 µM | CCc1sc2nc(Cn3nc(C(F)(F)F)cc3Cl)cc(=O)n2c1-c1cccnc1 [compound 202, 7-[[5-chloro-3-(trifluoromethyl)pyrazol-1-yl]methyl]-2-ethyl-3-(3-pyridyl)thiazolo[3,2-a]pyrimidin-5-one]
2.2 µM | 144% | – | CCc1cc(C(F)(F)F)nn1Cc1cc(=O)n2c(C3CC3CO)c(C)sc2n1 (centres unmarked) [Example 15.1, 7-((5-ethyl-3-(trifluoromethyl)-1H-pyrazol-1-yl)methyl)-3-(2-(hydroxymethyl)cyclopropyl)-2-methyl-5H-thiazolo[3,2-a]pyrimidin-5-one]
– | 96.3% | – | CCNC(=O)c1c(C)sc2nc(Cc3cc(F)ccc3C3CC3)cc(=O)n12 [Example 21.65, 7-(2-cyclopropyl-5-fluorobenzyl)-N-ethyl-2-methyl-5-oxo-5H-thiazolo[3,2-a]pyrimidine-3-carboxamide]
– | – | 10.5 µM | Cc1sc2nc(Oc3cccc(C(F)(F)F)c3F)cc(=O)n2c1C1CC1C (centres unmarked) [compound 86, 7-[2-fluoro-3-(trifluoromethyl)phenoxy]-2-methyl-3-(2-methylcyclopropyl)thiazolo[3,2-a]pyrimidin-5-one]
– | – | 0.0341 µM | Cc1sc2nc(Cn3nc(C(F)(F)F)cc3Cl)cc(=O)n2c1C1CC1C#N (centres unmarked) [compound 104, 2-[7-[[5-chloro-3-(trifluoromethyl)pyrazol-1-yl]methyl]-2-methyl-5-oxo-thiazolo[3,2-a]pyrimidin-3-yl]cyclopropanecarbonitrile]
– | 104% | – | Cc1sc2nc(Cn3nc(C4CC4)cc3C(F)(F)F)cc(=O)n2c1C#N [Example 17.3, 7-((3-cyclopropyl-5-(trifluoromethyl)-1H-pyrazol-1-yl)methyl)-2-methyl-5-oxo-5H-thiazolo[3,2-a]pyrimidine-3-carbonitrile]
16.5 µM | 137% | – | Cc1cc(C)n(Cc2cc(=O)n3c([C@@H]4C[C@H]4CO)c(C)sc3n2)n1 (relative stereo) [Example 15.25, 7-[(3,5-dimethylpyrazol-1-yl)methyl]-3-[trans-2-(hydroxymethyl)cyclopropyl]-2-methyl-thiazolo[3,2-a]pyrimidin-5-one]
5.5 µM | 140% | – | CCNC(=O)c1c(C2CC2)sc2nc(Cn3nc(C(F)(F)F)cc3C3CC3)cc(=O)n12 [Example 16.6, 2-cyclopropyl-7-((5-cyclopropyl-3-(trifluoromethyl)-1H-pyrazol-1-yl)methyl)-N-ethyl-5-oxo-5H-thiazolo[3,2-a]pyrimidine-3-carboxamide]
– | – | 9.02 µM | Cc1sc2nc(Cc3cccc(C#N)c3F)c(F)c(=O)n2c1C(=O)NCC(F)(F)F [compound 15, 7-[(3-cyano-2-fluoro-phenyl)methyl]-6-fluoro-2-methyl-5-oxo-N-(2,2,2-trifluoroethyl)thiazolo[3,2-a]pyrimidine-3-carboxamide]
– | 54.5% | – | CCNC(=O)c1c(C)sc2nc(Cc3cc(F)ccc3F)cc(=O)n12 [Example 21.42, 7-(2,5-difluorobenzyl)-N-ethyl-2-methyl-5-oxo-5H-thiazolo[3,2-a]pyrimidine-3-carboxamide]

EC50 (Table 2) | Max % (Table 2) | EC50 (Table 3) | Structure (SMILES)
0.512 µM | 126% | – | Cc1sc2nc(Cn3nc(C(F)(F)F)cc3C#N)cc(=O)n2c1[C@@H]1C[C@H]1CO (relative stereo) [Example 15.19, 1-((3-(trans-2-(hydroxymethyl)cyclopropyl)-2-methyl-5-oxo-5H-thiazolo[3,2-a]pyrimidin-7-yl)methyl)-3-(trifluoromethyl)-1H-pyrazole-5-carbonitrile]
2.2 µM | 177% | – | Cc1sc2nc(CN(CC(F)(F)F)c3ccc(F)cc3)cc(=O)n2c1-c1cncnc1 [Example 5.3, 7-(((4-fluorophenyl)(2,2,2-trifluoroethyl)amino)methyl)-2-methyl-3-(pyrimidin-5-yl)-5H-thiazolo [3,2-a]pyrimidin-5-one]
– | 82.3% | – | CNC(=O)c1c(C)sc2nc(Cc3cccc(OC(F)(F)F)c3)cc(=O)n12 [Example 21.49, N,2-dimethyl-5-oxo-7-[[3-(trifluoromethoxy)phenyl]methyl]thiazolo[3,2-a]pyrimidine-3-carboxamide]
7 µM | 108% | – | CCN(Cc1cc(=O)n2c(C3CCCC3)c(C)sc2n1)c1ccc(F)cc1 [Example 9.3, 3-cyclopentyl-7-[(N-ethyl-4-fluoro-anilino)methyl]-2-methyl-thiazolo[3,2-a]pyrimidin-5-one]
4.7 µM | 111% | – | CCN(Cc1cc(=O)n2c(-c3cc(F)cc(F)c3)c(C)sc2n1)c1ccc(F)cc1 [Example 5.55, 3-(3,5-difluorophenyl)-7-[(N-ethyl-4-fluoro-anilino)methyl]-2-methyl-thiazolo[3,2-a]pyrimidin-5-one]
3.8 µM | 155% | – | Cc1sc2nc(CN3c4ccc(F)cc4CC3C)cc(=O)n2c1-c1ccco1 (centres unmarked) [Example 5.46, 7-((5-fluoro-2-methylindolin-1-yl)methyl)-3-(furan-2-yl)-2-methyl-5H-thiazolo[3,2-a]pyrimidin-5-one]
1.3 µM | 153% | – | C=Cc1c(C)sc2nc(CN(CC)c3ccc(F)cc3)cc(=O)n12 [Example 5.53, 7-((ethyl(4-fluorophenyl)amino)methyl)-2-methyl-3-vinyl-5H-thiazolo[3,2-a]pyrimidin-5-one]
– | – | 7.66 µM | CCNC(=O)c1c(C)sc2nc(Oc3cccc(C(F)(F)F)c3F)cc(=O)n12 [compound 48, N-ethyl-7-[2-fluoro-3-(trifluoromethyl)phenoxy]-2-methyl-5-oxo-thiazolo[3,2-a]pyrimidine-3-carboxamide]
– | – | 0.0737 µM | Cc1sc2nc(Cn3nc(C(F)(F)F)cc3Br)cc(=O)n2c1C1CC1C#N (single isomer, unassigned) [compound 275]
– | – | 0.409 µM | COc1sc2nc(Cn3nc(Cl)cc3C(F)(F)F)cc(=O)n2c1C(C)=O [compound 245, 3-acetyl-7-[[3-chloro-5-(trifluoromethyl)pyrazol-1-yl]methyl]-2-methoxy-thiazolo[3,2-a]pyrimidin-5-one]
– | – | 0.37 µM | N#CC1CC1c1c(C(F)(F)F)sc2nc(Cn3nc(C(F)(F)F)cc3Cl)cc(=O)n12 (single isomer, unassigned) [compound 208]
2.1 µM | 162% | – | Cc1sc2nc(CN3c4ccc(F)cc4CC3C)cc(=O)n2c1C#N (centres unmarked) [Example 7.5, 7-((5-fluoro-2-methylindolin-1-yl)methyl)-2-methyl-5-oxo-5H-thiazolo[3,2-a]pyrimidine-3-carbonitrile]
– | – | 4.13 µM | CCNC(=O)c1c(C)sc2nc(Cn3nc(Cl)cc3C3CC3)cc(=O)n12 [compound 22, 7-[(3-chloro-5-cyclopropyl-pyrazol-1-yl)methyl]-N-ethyl-2-methyl-5-oxo-thiazolo[3,2-a]pyrimidine-3-carboxamide]
27 µM | 44.8% | – | CCNC(=O)c1csc2nc(COc3ccc(F)cc3)cc(=O)n12 [Example 1.7, N-ethyl-7-(4-fluorophenoxymethyl)-5-oxo-5H-[1,3]thiazolo[3,2-a]pyrimidine-3-carboxamide]
– | – | 32.2 µM | Cc1sc2nc(Cn3nc(Cl)cc3N)cc(=O)n2c1Br [compound 228, 7-[(5-amino-3-chloro-pyrazol-1-yl)methyl]-3-bromo-2-methyl-thiazolo[3,2-a]pyrimidin-5-one]
– | 110% | – | CCN(Cc1cc(=O)n2c(-c3ccn(C)n3)c(C)sc2n1)c1ccc(F)cc1 [Example 5.56, 7-[(N-ethyl-4-fluoro-anilino)methyl]-2-methyl-3-(1-methylpyrazol-3-yl)thiazolo[3,2-a]pyrimidin-5-one]

Structure (SMILES) | EC50 (Table 2) | Max % (Table 2) | EC50 (Table 3)
Cc1sc2nc(COc3ccc(F)cc3)cc(=O)n2c1C1CC1CO (single isomer, unassigned) [Example 4.3, 7-(4-Fluorophenoxymethyl)-3-[trans-2-(hydroxymethyl)cyclopropyl]-2-methyl-5H-[1,3]thiazolo[3,2-a]pyrimidin-5-one] | 20.5 µM | 71.6% | –
